# Reference: PubChem BioAssay (NCI)
#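 Cells were grown in 96-well plates and exposed to each compound for 48 hours at five concentrations; endpoints were interpolated linearly between bracketing concentrations, or set to the highest concentration if not reached. GI50: concentration for 50% inhibition of growth. TGI marks complete inhibition of growth.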
# Columns and labels:
# Test in all cases: inhibition of tumour cell growth, NCI panel, 48 h
# [1] = test system: 786-0 renal
# [2] = test system: A498 renal
# [3] = test system: A549 NSCLC
# [4] = test system: ACHN renal
# [5] = test system: BT-549 breast
# [6] = test system: CAKI-1 renal
# [7] = test system: CCRF-CEM leukemia
# [8] = test system: COLO 205 colon
# [9] = test system: DU-145 prostate
# [10] = test system: EKVX NSCLC
# [11] = test system: HCC-2998 colon
# [12] = test system: HCT-116 colon
# [13] = test system: HCT-15 colon
# [14] = test system: HOP-62 NSCLC
# [15] = test system: HOP-92 NSCLC
# [16] = test system: HS 578T breast
# [17] = test system: IGROV1 ovarian
# [18] = test system: K-562 leukemia
# [19] = test system: KM12 colon
# [20] = test system: LOX IMVI melanoma
# [21] = test system: M14 melanoma
# [22] = test system: MALME-3M melanoma
# [23] = test system: MCF7 breast
# [24] = test system: MDA-MB-231 breast
# [25] = test system: MDA-MB-435
# [26] = test system: MOLT-4 leukemia
# [27] = test system: NCI-H226 lung
# [28] = test system: NCI-H23 lung
# [29] = test system: NCI-H460 lung
# [30] = test system: NCI-H522 lung
# [31] = test system: NCI/ADR-RES ovarian
# [32] = test system: OVCAR-3 ovarian
# [33] = test system: OVCAR-4 ovarian
# [34] = test system: OVCAR-5 ovarian
# [35] = test system: OVCAR-8 ovarian
# [36] = test system: PC-3 prostate
# [37] = test system: RPMI-8226 leukemia
# [38] = test system: RXF 393 renal
# [39] = test system: SF-268 CNS
# [40] = test system: SF-295 CNS
# [41] = test system: SF-539 CNS
# [42] = test system: SK-MEL-2 melanoma
# [43] = test system: SK-MEL-28 melanoma
# [44] = test system: SK-MEL-5 melanoma
# [45] = test system: SK-OV-3 ovarian
# [46] = test system: SN12C renal
# [47] = test system: SNB-19 CNS
# [48] = test system: SR leukemia
# [49] = test system: SW-620 colon
# [50] = test system: T-47D breast
# [51] = test system: TK-10 renal
# [52] = test system: U251 CNS
# [53] = test system: UACC-257 melanoma
# [54] = test system: UACC-62 melanoma
# [55] = test system: UO-31 renal
compound,measurement,setting,value
O=S(=O)(Nc1ccc(-c2nc(-c3cccc(OCCN4CCOCC4)c3)c(-c3ccnc(Br)c3)[nH]2)cc1)c1ccccc1,GI50,[1],2.37 µM
same,TGI,[1],7.96 µM
same,GI50,[2],1.53 µM
same,TGI,[2],6.94 µM
same,GI50,[3],3.35 µM
same,TGI,[3],> 100 µM
same,GI50,[4],2.99 µM
same,TGI,[4],> 100 µM
same,GI50,[5],3.02 µM
same,TGI,[5],> 100 µM
same,GI50,[6],2.56 µM
same,TGI,[6],14.5 µM
same,GI50,[7],2.89 µM
same,TGI,[7],> 100 µM
same,GI50,[8],3.54 µM
same,TGI,[8],> 100 µM
same,GI50,[9],5.64 µM
same,TGI,[9],> 100 µM
same,GI50,[10],3.4 µM
same,TGI,[10],> 100 µM
same,GI50,[11],1.85 µM
same,TGI,[11],3.71 µM
same,GI50,[12],3.09 µM
same,TGI,[12],> 100 µM
same,GI50,[13],1.74 µM
same,TGI,[13],6.79 µM
same,GI50,[14],3.5 µM
same,TGI,[14],57.3 µM
same,GI50,[15],2.41 µM
same,TGI,[15],8.18 µM
same,GI50,[16],1.47 µM
same,TGI,[16],4.37 µM
same,GI50,[17],3.98 µM
same,TGI,[17],> 100 µM
same,GI50,[18],2.32 µM
same,TGI,[18],> 100 µM
same,GI50,[19],3.21 µM
same,TGI,[19],> 100 µM
same,GI50,[20],1.62 µM
same,TGI,[20],3.42 µM
same,GI50,[21],2.09 µM
same,TGI,[21],5.55 µM
same,GI50,[22],2.2 µM
same,TGI,[22],56.9 µM
same,GI50,[23],2.16 µM
same,TGI,[23],8.51 µM
same,GI50,[24],3.23 µM
same,TGI,[24],63.6 µM
same,GI50,[25],2.93 µM
same,TGI,[25],> 100 µM
same,GI50,[26],2.59 µM
same,TGI,[26],> 100 µM
same,GI50,[27],3.1 µM
same,TGI,[27],40.6 µM
same,GI50,[28],2.43 µM
same,TGI,[28],8.71 µM
same,GI50,[29],3.45 µM
same,TGI,[29],> 100 µM
same,GI50,[30],3.14 µM
same,TGI,[30],> 100 µM
same,GI50,[31],4.18 µM
same,TGI,[31],> 100 µM
same,GI50,[32],4.71 µM
same,TGI,[32],> 100 µM
same,GI50,[33],4.16 µM
same,TGI,[33],> 100 µM
same,GI50,[34],5.99 µM
same,TGI,[34],> 100 µM
same,GI50,[35],3.27 µM
same,TGI,[35],> 100 µM
same,GI50,[36],2.4 µM
same,TGI,[36],36.6 µM
same,GI50,[37],2.5 µM
same,TGI,[37],> 100 µM
same,GI50,[38],2.26 µM
same,TGI,[38],6.78 µM
same,GI50,[39],4.23 µM
same,TGI,[39],> 100 µM
same,GI50,[40],1.72 µM
same,TGI,[40],4.1 µM
same,GI50,[41],3.68 µM
same,TGI,[41],> 100 µM
same,GI50,[42],2.59 µM
same,TGI,[42],6.87 µM
same,GI50,[43],2.77 µM
same,TGI,[43],9.79 µM
same,GI50,[44],2.12 µM
same,TGI,[44],4.6 µM
same,GI50,[45],3.81 µM
same,TGI,[45],> 100 µM
same,GI50,[46],5.37 µM
same,TGI,[46],> 100 µM
same,GI50,[47],6.07 µM
same,TGI,[47],> 100 µM
same,GI50,[48],2.62 µM
same,TGI,[48],> 100 µM
same,GI50,[49],3.53 µM
same,TGI,[49],> 100 µM
same,GI50,[50],2.86 µM
same,TGI,[50],28.6 µM
same,GI50,[51],4.16 µM
same,TGI,[51],> 100 µM
same,GI50,[52],2.92 µM
same,TGI,[52],46 µM
same,GI50,[53],3.03 µM
same,TGI,[53],12 µM
same,GI50,[54],2.66 µM
same,TGI,[54],12.1 µM
same,GI50,[55],2.92 µM
same,TGI,[55],> 100 µM
